From paper PMC3790851, “Improved Mass Spectrometry Assay For Plasma Hepcidin: Detection and Characterization of a Novel Hepcidin Isoform” (PLoS ONE, 2013)
pEC50: −log10 of the molar value.

What was measured:
[1] = target: T1, green fluorescent protein (GFP)-fused human ferroportin (Homo sapiens, UniProt Q9NP59); assay: Hepcidin bioactivity assay: GFP-ferroportin internalization and degradation; assay type: cell-based; conditions: stable cell line, inducible GFP-fused human ferroportin; fluorescence in triplicate wells; four parameter logistic fit; 95% confidence interval: hepcidin-24 126.8 nM - 289.2 nM, hepcidin-25 12.2 nM –17.8 nM; read-out: EC50 for ferroportin internalization and degradation
T1 construct: expressed in transfected cells
T1 sequence (Q9NP59 1-571): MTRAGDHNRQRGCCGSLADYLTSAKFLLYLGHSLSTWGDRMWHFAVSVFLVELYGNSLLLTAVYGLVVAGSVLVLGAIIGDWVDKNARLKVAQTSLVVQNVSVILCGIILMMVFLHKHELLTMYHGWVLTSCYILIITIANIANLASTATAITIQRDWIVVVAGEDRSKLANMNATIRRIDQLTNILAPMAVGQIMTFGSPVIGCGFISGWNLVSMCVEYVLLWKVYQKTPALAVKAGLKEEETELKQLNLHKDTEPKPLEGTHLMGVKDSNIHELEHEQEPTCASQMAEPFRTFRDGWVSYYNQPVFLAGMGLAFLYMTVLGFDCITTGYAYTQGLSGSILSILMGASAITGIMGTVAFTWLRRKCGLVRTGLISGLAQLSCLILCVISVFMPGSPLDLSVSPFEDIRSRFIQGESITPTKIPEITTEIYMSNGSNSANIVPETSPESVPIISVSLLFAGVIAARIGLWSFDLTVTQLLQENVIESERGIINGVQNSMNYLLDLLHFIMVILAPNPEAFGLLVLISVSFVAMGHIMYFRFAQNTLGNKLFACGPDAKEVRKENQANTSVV
Description: A stable cell line engineered for inducible expression of green fluorescent protein (GFP)-fused human ferroportin was used as a test system to determine hepcidin-24 activity relative to hepcidin-25, 22 and 20. In this cell system, ferroportin internalization and degradation provided a means to quantify hepcidin activity. The assay was implemented basically as described by Nemeth et al., [33] except that fluorescence was quantified in triplicate wells on a microplate reader. To determine EC50 values for hepcidin-25 and hepcidin-24, a curve was fitted by nonlinear regression with a four parameter logistic equation using Prism v5 (GraphPad).
Figure 5 Hepcidin-mediated ferroportin internalization. Different concentrations of synthetic hepcidin-25, -24, -22 and -20 (indicated in nM on the horizontal axis) were added to the growth medium of a stable cell line that expresses green fluorescent protein-fused ferroportin (GFP-FPN). Hepcidin-mediated GFP-FPN internalization and degradation was quantified by measuring cellular fluorescence levels in arbitrary units.

in vitro [2] = conditions: human
Description: (§1) Samples were used for measurement of hepcidin between 4–7 hrs after blood drawing and/or pooled and/or stored in aliquots at various temperatures for prolonged periods of time.
(§2) Fresh samples were measured within 2–4 hrs hours after blood drawing and stored in aliquots at various temperatures for prolonged incubation.
(§3) Mass-to-charge (m/z) spectra were generated by using MALDI-TOF MS (Microflex LT, Bruker Daltonics). Spectra were analyzed by using Bruker Daltonics FlexAnalysis software. […] Total hepcidin concentration was defined as the sum of hepcidin-25, -24, -22, and -20 concentrations.
(§4) Using the novel heavy hepcidin-25 internal standard, we assessed changes in hepcidin-25 and the smaller isoforms in various samples containing various anticoagulants ex vivo at room temperature (RT), 4°C, −20°C and −80°C. More specifically, changes in hepcidin concentrations relative to those found in freshly collected samples were determined i) at storage at RT and 4°C on day 0 (fresh samples), 1 (14–22 hrs), 2, 3, and 7 days after sampling/storage, ii) at −20°C after 1 week, and after 1, 4 and 6 months of storage and iii) at −80°C at after 6 months of storage.

in vitro [3] = conditions: human, heparin plasma
Description: as §1, §2, §3, §4

[4] = Stability of hepcidin in plasma/serum at room temperature (WCX-TOF MS); assay type: in vitro ADME, human
Description: Spectra were analyzed by using Bruker Daltonics FlexAnalysis software.
To assess the stability of hepcidin in serum and plasma matrices, we kept samples from intensive care patients (n = 20) and healthy controls (n = 5) at room temperature for 0–7 days followed by WCX-TOF MS analysis using the hepcidin-25^+40 internal standard. […] For the samples at day 1 and day 7, the mean decrease in hepcidin-25 for the 5 controls and 20 intensive care patients was 90% (CV, 8% ) and 55% (CV, 23%), respectively (Table 3).

[5] = not given; remark: listed apart in the source
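Throughout, for Hepcidin level after one week at -20°C, EDTA plasma: hepcidin in stored plasma or serum quantified by MALDI-TOF MS against a heavy hepcidin-25 internal standard, expressed relative to concentrations in freshly collected samples.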
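Throughout, for no significant change at -20°C for: hepcidin in stored plasma or serum quantified by MALDI-TOF MS against a heavy hepcidin-25 internal standard, expressed relative to concentrations in freshly collected samples.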
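Throughout, for stable at -20°C for: hepcidin in stored plasma or serum quantified by MALDI-TOF MS against a heavy hepcidin-25 internal standard, expressed relative to concentrations in freshly collected samples.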

## CC[C@H](C)[C@@H]1NC(=O)[C@@H](NC(=O)[C@@H](NC(=O)[C@@H]2CCCN2C(=O)[C@H](Cc2ccccc2)NC(=O)[C@H](Cc2c[nH]cn2)NC(=O)[C@@H](NC(=O)[C@@H](N)CC(=O)O)[C@@H](C)O)[C@@H](C)CC)CSSC[C@@H](C(=O)N[C@@H](CCCCN)C(=O)N[C@H](C(=O)O)[C@@H](C)O)NC(=O)[C@@H]2CSSC[C@H](NC(=O)[C@H](Cc3ccccc3)NC1=O)C(=O)N[C@H]1CSSC[C@H](NC(=O)[C@H](CCCCN)NC(=O)[C@H](CO)NC(=O)[C@H](CCCNC(=N)N)NC(=O)[C@H](Cc3c[nH]cn3)NC(=O)[C@@H]3CSSC[C@H](NC(=O)CNC1=O)C(=O)N3)C(=O)NCC(=O)N[C@@H](CCSC)C(=O)N2 [Hepcidin-25]
[1]
  pEC50: 7.83
In vitro [2]; EDTA plasma
  remaining at 1 mnt: 94%
  remaining at 4 mnts: 92%
  remaining at 6 months: 88%
  remaining at 168 h: 89%
  remaining at 672 h: 99%
In vitro [2]; citrate plasma
  remaining at 1 mnt: 95%
  remaining at 4 mnts: 102%
  remaining at 6 mnts: 97%
  remaining at 168 h: 97%
In vitro [2]; heparin plasma
  remaining at 1 mnt: 92%
  remaining at 4 mnts: 100%
  remaining at 6 mnts: 83%
  remaining at 168 h: 96%
  remaining at 672 h: 97%
In vitro [2]; serum
  remaining at 1 mnt: 96%
  remaining at 4 mnts: 98%
  remaining at 6 mnts: 99%
  remaining at 168 h: 97%
EDTA and heparin plasma of 10 intensive care patients and 5 controls
  stable at -20°C for: at least 4 weeks
average, % of fresh, 10 IC patients and 5 controls, CV (Hep-25/-24/-22/-20) 11/12/11/28, n = 15/8/6/9, hepcidin-20 unreliable (additional peak)
  Hepcidin level after one week at -20°C, EDTA plasma: 96%
Heparin samples at 7 days, -20°C, IC + control n = 15, CV 8%
  hepcidin-25 relative to fresh samples upon freezing: 95%
serum, heparin, EDTA and citrate plasma of healthy controls (n = 5)
  no significant change at -20°C for: at least 6 months
In vitro [3]
  remaining at 168 h: 99%
[4]; average, % of fresh sample, 7 days, human heparin plasma, 19 IC patients + 5 controls, results <1.0 nM removed, WCX-TOF MS, hepcidin-25^+40 internal standard, CV (Hep-25/-24/-22/-20/Total) 23/29/29/38/17, n = 24/15/13/18/11
  Hepcidin level after one week at RT: 55%
[4]; average, % of fresh sample, human heparin plasma, 19 IC patients + 5 controls, results <1.0 nM removed, WCX-TOF MS, hepcidin-25^+40 internal standard, CV (Hep-25/-24/-22/-20/Total) 8/21/14/25/5, n = 24/15/13/18/11
  Hepcidin level after one day at RT: 90%
[4]; average, % of fresh, 7 days, heparin plasma, 10 IC patients, results <1 nM excluded, CV (Hep-25/-24/-22/-20) 30/31/23/41, n = 10/8/7/8
  Hepcidin level after one week at RT, without protease inhibitors: 48%
[4]; average, % of fresh, heparin plasma, 10 IC patients, results <1 nM excluded, CV (Hep-25/-24/-22/-20) 13/20/11/11, n = 10/8/7/8
  Hepcidin level after one day at RT, without protease inhibitors: 89%
[4]; heparin plasma, 5 controls and 20 intensive care patients, CV 8%
  mean hepcidin-25 level remaining at day 1 at RT, % of fresh: 90%
[4]; heparin samples of IC patients (n = 10), RT
  effect of protease inhibitors on hepcidin-25 decrease: prevented hepcidin-25 processing to a certain extend but did not block its decrease completely
[4]; human, average, % of fresh, 7 days, heparin plasma, 10 IC patients, Complete Mini (Roche), CV (Hep-25/-24/-22/-20) 25/35/9/25, n = 10/8/7/8, read-out: Hepcidin level after one week at RT, with protease inhibitors
  remaining at 168 h: 69%
[4]; human, average, % of fresh, heparin plasma, 10 IC patients, Complete Mini (Roche), 1 tablet in 200 µL PBS, 20 µL per 1 ml plasma, CV (Hep-25/-24/-22/-20) 8/30/4/14, n = 10/8/7/8, read-out: Hepcidin level after one day at RT, with protease inhibitors
  remaining at 1 day: 91%
[5]; average, % of fresh, 10 IC patients and 5 controls, results <1.0 nM deleted, CV (Hep-25/-24/-22/-20) 11/6/11/22, n = 15/8/6/9
  Hepcidin level after one day at 4°C, EDTA plasma: 101%
[5]; average, % of fresh, 7 days, 10 IC patients and 5 controls, CV (Hep-25/-24/-22/-20) 9/8/18/21, n = 15/8/6/9, hepcidin-20 in stored EDTA plasma unreliable (additional peak)
  Hepcidin level after one week at 4°C, EDTA plasma: 101%
[5]; heparin and EDTA plasma (10 IC patients, 5 controls), citrate plasma and serum (5 controls)
  stability at 4°C for 0–7 days: remained stable
